Converted amounts (≈) assume the structure as drawn.
Columns and labels:
[1] = tested on: Bacillus subtilis; assay: Antibacterial activity against Bacillus subtilis ATCC 451 after 24 hrs by twofold serial dilution method; assay type: functional; conditions: for MIC: Bacillus subtilis, ATCC 451, 24 h
[2] = tested on: Pseudomonas aeruginosa; assay: Antibacterial activity against Pseudomonas aeruginosa ATCC 10145 after 24 hrs by twofold serial dilution method; assay type: functional; conditions: for MIC: Pseudomonas aeruginosa, ATCC 10145, 24 h
[3] = tested on: Cryptococcus neoformans; assay: Antifungal activity against Cryptococcus neoformans after 72 to 96 hrs by twofold serial dilution method; assay type: functional; conditions: for MIC: Cryptococcus neoformans
[4] = tested on: Escherichia coli; assay: Antibacterial activity against Escherichia coli ATCC 25835 after 24 hrs by twofold serial dilution method; assay type: functional; conditions: for MIC: Escherichia coli, ATCC 25835, 24 h
[5] = tested on: Klebsiella pneumoniae; assay: Antibacterial activity against Klebsiella pneumoniae ATCC 15490 after 24 hrs by twofold serial dilution method; assay type: functional; conditions: for MIC: Klebsiella pneumoniae, ATCC 15490, 24 h
[6] = tested on: Candida albicans; assay: Antifungal activity against Candida albicans after 24 hrs by twofold serial dilution method; assay type: functional; conditions: for MIC: Candida albicans, 24 h
[7] = tested on: Staphylococcus aureus; assay: Antibacterial activity against Staphylococcus aureus ATCC 25825 after 24 hrs by twofold serial dilution method; assay type: functional; conditions: for MIC: Staphylococcus aureus, ATCC 25825, 24 h
[8] = tested on: Aspergillus niger; assay: Antifungal activity against Aspergillus niger after 72 to 96 hrs by twofold serial dilution method; assay type: functional; conditions: for MIC: Aspergillus niger
[9] = tested on: Salmonella typhi; assay: Antibacterial activity against Salmonella typhi ATCC 24915 after 24 hrs by twofold serial dilution method; assay type: functional, Salmonella enterica subsp. enterica serovar Typhi; conditions: for MIC: Salmonella enterica, ATCC 24915, 24 h

Cc1ccc([C@H]2O[C@@H](c3ccc(C)cc3)[C@H](C)/C(=N/NC(N)=S)[C@H]2C)cc1
-logMIC [1]: 4.301
MIC [1]: 50 µg/mL (≈ 131 µM)
-logMIC [2]: 4
MIC [2]: 100 µg/mL (≈ 262 µM)
-logMIC [3]: 4
MIC [3]: 100 µg/mL (≈ 262 µM)
-logMIC [4]: 4.602
MIC [4]: 25 µg/mL (≈ 65.5 µM)
-logMIC [5]: 4
MIC [5]: 100 µg/mL (≈ 262 µM)
-logMIC [6]: 4
MIC [6]: 100 µg/mL (≈ 262 µM)
-logMIC [7]: 4.301
MIC [7]: 50 µg/mL (≈ 131 µM)
-logMIC [8]: 4.301
MIC [8]: 50 µg/mL (≈ 131 µM)
MIC [9]: 50 µg/mL (≈ 131 µM)

C[C@@H]1/C(=N/NC(N)=S)C[C@@H](c2ccccc2)O[C@H]1c1ccccc1
-logMIC [2]: 3.698
MIC [2]: 200 µg/mL (≈ 589 µM)
-logMIC [3]: 4.301
MIC [3]: 50 µg/mL (≈ 147 µM)
-logMIC [5]: 4
MIC [5]: 100 µg/mL (≈ 295 µM)
-logMIC [6]: 3.698
MIC [6]: 200 µg/mL (≈ 589 µM)
-logMIC [7]: 4
MIC [7]: 100 µg/mL (≈ 295 µM)
MIC [9]: 50 µg/mL (≈ 147 µM)

CC[C@@H]1/C(=N/NC(N)=S)C[C@@H](c2ccccc2)O[C@H]1c1ccccc1
-logMIC [1]: 4.301
MIC [1]: 50 µg/mL (≈ 141 µM)
-logMIC [2]: 4
MIC [2]: 100 µg/mL (≈ 283 µM)
-logMIC [3]: 4.301
MIC [3]: 50 µg/mL (≈ 141 µM)
-logMIC [4]: 4.602
MIC [4]: 25 µg/mL (≈ 70.7 µM)
-logMIC [5]: 4
MIC [5]: 100 µg/mL (≈ 283 µM)
-logMIC [6]: 3.698
MIC [6]: 200 µg/mL (≈ 566 µM)
-logMIC [7]: 4.301
MIC [7]: 50 µg/mL (≈ 141 µM)
-logMIC [8]: 3.698
MIC [8]: 200 µg/mL (≈ 566 µM)
MIC [9]: 50 µg/mL (≈ 141 µM)

C[C@@H]1/C(=N\NC(N)=S)[C@@H](C)[C@H](c2ccc(F)cc2)O[C@@H]1c1ccc(F)cc1
-logMIC [1]: 4.602
MIC [1]: 25 µg/mL (≈ 64.2 µM)
-logMIC [2]: 4
MIC [2]: 100 µg/mL (≈ 257 µM)
-logMIC [3]: 4.602
MIC [3]: 25 µg/mL (≈ 64.2 µM)
-logMIC [4]: 4.301
MIC [4]: 50 µg/mL (≈ 128 µM)
-logMIC [5]: 4.301
MIC [5]: 50 µg/mL (≈ 128 µM)
-logMIC [6]: 4
MIC [6]: 100 µg/mL (≈ 257 µM)
-logMIC [7]: 4.301
MIC [7]: 50 µg/mL (≈ 128 µM)
-logMIC [8]: 4
MIC [8]: 100 µg/mL (≈ 257 µM)
MIC [9]: 25 µg/mL (≈ 64.2 µM)

C[C@@H]1/C(=N\NC(N)=S)[C@@H](C)[C@H](c2ccc(Cl)cc2)O[C@@H]1c1ccc(Cl)cc1
-logMIC [1]: 4.602
MIC [1]: 25 µg/mL (≈ 59.2 µM)
-logMIC [2]: 4.301
MIC [2]: 50 µg/mL (≈ 118 µM)
-logMIC [3]: 4.602
MIC [3]: 25 µg/mL (≈ 59.2 µM)
-logMIC [4]: 4.301
MIC [4]: 50 µg/mL (≈ 118 µM)
-logMIC [5]: 4.602
MIC [5]: 25 µg/mL (≈ 59.2 µM)
-logMIC [6]: 4.602
MIC [6]: 25 µg/mL (≈ 59.2 µM)
-logMIC [7]: 4.602
MIC [7]: 25 µg/mL (≈ 59.2 µM)
-logMIC [8]: 4
MIC [8]: 100 µg/mL (≈ 237 µM)
MIC [9]: 25 µg/mL (≈ 59.2 µM)

C[C@@H]1/C(=N\NC(N)=S)[C@@H](C)[C@H](c2ccc(Br)cc2)O[C@@H]1c1ccc(Br)cc1
-logMIC [1]: 4.301
MIC [1]: 50 µg/mL (≈ 97.8 µM)
-logMIC [2]: 4.903
MIC [2]: 12.5 µg/mL (≈ 24.4 µM)
-logMIC [3]: 4.301
MIC [3]: 50 µg/mL (≈ 97.8 µM)
-logMIC [4]: 4.301
MIC [4]: 50 µg/mL (≈ 97.8 µM)
-logMIC [5]: 4.602
MIC [5]: 25 µg/mL (≈ 48.9 µM)
-logMIC [6]: 4.301
MIC [6]: 50 µg/mL (≈ 97.8 µM)
-logMIC [7]: 4.602
MIC [7]: 25 µg/mL (≈ 48.9 µM)
-logMIC [8]: 3.698
MIC [8]: 200 µg/mL (≈ 391 µM)
MIC [9]: 25 µg/mL (≈ 48.9 µM)

COc1ccc([C@H]2O[C@@H](c3ccc(OC)cc3)[C@H](C)/C(=N/NC(N)=S)[C@H]2C)cc1
-logMIC [1]: 4.903
MIC [1]: 12.5 µg/mL (≈ 30.2 µM)
-logMIC [2]: 4.301
MIC [2]: 50 µg/mL (≈ 121 µM)
-logMIC [3]: 3.698
MIC [3]: 200 µg/mL (≈ 484 µM)
-logMIC [4]: 4.602
MIC [4]: 25 µg/mL (≈ 60.5 µM)
-logMIC [5]: 4.301
MIC [5]: 50 µg/mL (≈ 121 µM)
-logMIC [6]: 4.903
MIC [6]: 12.5 µg/mL (≈ 30.2 µM)
-logMIC [7]: 4.903
MIC [7]: 12.5 µg/mL (≈ 30.2 µM)
-logMIC [8]: 4.301
MIC [8]: 50 µg/mL (≈ 121 µM)
MIC [9]: 50 µg/mL (≈ 121 µM)

C[C@@H]1/C(=N/NC(=S)Nc2ccccc2)C[C@@H](c2ccccc2)O[C@H]1c1ccccc1
-logMIC [1]: 4.301
MIC [1]: 50 µg/mL (≈ 120 µM)
-logMIC [2]: 4.301
MIC [2]: 50 µg/mL (≈ 120 µM)
-logMIC [3]: 4.903
MIC [3]: 12.5 µg/mL (≈ 30.1 µM)
-logMIC [4]: 4.301
MIC [4]: 50 µg/mL (≈ 120 µM)
-logMIC [5]: 4
MIC [5]: 100 µg/mL (≈ 241 µM)
-logMIC [6]: 4
MIC [6]: 100 µg/mL (≈ 241 µM)
-logMIC [7]: 4.301
MIC [7]: 50 µg/mL (≈ 120 µM)
-logMIC [8]: 4
MIC [8]: 100 µg/mL (≈ 241 µM)
-logMIC [9]: 4
MIC [9]: 100 µg/mL (≈ 241 µM)

From ChEMBL document CHEMBL1759834, “Synthesis, stereochemistry, antimicrobial evaluation and QSAR studies of 2,6-diaryltetrahydropyran-4-one thiosemicarbazones” (2011)
